# Data: patent US7005298B1, “Micropropagation and production of phytopharmaceutical plants” (priority 1999, dated 2006)
# Marks after values point to notes of the source that are not given here.
# Assays:
# [1] = tested on: Echinacea purpurea petiole explants; assay: Regeneration of Echinacea purpurea petiole explants on induction medium (BAP, TDZ, IAA); assay type: cell-based; conditions: for Number of regenerants/petiole: after 33 days of culture
# Description: The design of all experiments was a complete randomized block and treatments consisted of five replications. All the experiments were repeated at least twice and the data were analyzed using SAS Version 6.12 (SAS Inc., 1995). Significant differences between means were assessed by a Student-Neuman-Keulls means separation test at P≦0.05.
# Germinating seedlings were cultured onto MS medium (Murashige & Skoog, 1962) with B5 vitamins (Gamborg et al 1968), 30 g·L^−1 sucrose and 3 g·L^−1 gelrite in Magenta boxes. Petiole explants, 2 cm in length were excised from 4 week old sterile Echinacea purpurea plants and cultured onto induction medium comprising MS media supplemented with thidiazuron (TDZ) (0.5, 1, 5 and 10 μmol·L^−1) or BAP (1, 2.5, 5, 7.5, 10, 12.5 and 15 μmol·L^−1). TDZ was added to the media at concentrations of 0.5 and 1.0 μmmol·L^−1 in combination with indole acetic acid (IAA, an auxin) at concentrations of 5 and 10 μmol·L^−1. Explants cultured on media containing TDZ and IAA were subcultured onto MS basal media after 23 days while those cultured on media containing higher concentrations of TDZ were subcultured onto MS basal media after 4 and 8 days. All treatments consisted of 10 plates per treatment and 6 explants per plate. Treatments were incubated in a growth cabinet with a 16 hour photoperiod under cool white light at 40–60 μmol·m^−2·s^−1. Regeneration was quantified after 25 and 33 days for all petiole cultures and roots after 33 and 42 days of culture. The resulting regenerants were excised from petioles and subcultured onto MS basal media in test tubes for germination after 32 days of culture.
# [2] = tested on: St. John's wort plantlets; assay: Lithium accumulation and growth of St. John's wort plantlets on lithium-supplemented liquid basal medium; assay type: in vivo, Hypericum perforatum
# Description: St. John's wort seedlings were obtained from sterilized seeds germinated in a controlled environment. St. John's wort seeds were sterilized by immersing in a 70% ethanol solution for 5 s, followed by an immersion in a 30% solution of 5.4% sodium hypochlorite (Lilo Products, Hamilton, Ontario) in water with one drop of Tween 20 per 500 mL for 20 min, and a three times rinse in sterile distilled water. Sterile seeds were germinated and maintained on water agar (8 g·L^−1) for 16 days in darkness in a growth cabinet at 24° C. Individual seedlings were cultured in Magenta boxes on a medium containing MS medium (Murashige and Skoog, 1962), B5 vitamins (Gamborg et al 1968), 30 g·L^−1 sucrose and 3 g·L^−1 gellan gum (Gelrite, Schweitzerhall Inc., South Plainfield, N.J., USA). Seedling cultures were incubated in a growth cabinet with a 16 hour photoperiod under cool white light at 40–60 μmol·m^−2·s^−1. After 30 days, seedlings were excised from the Magenta boxes and subcultured into 125 mL flasks containing 25 mL of a basal medium containing MS medium (Murashige and Skoog, 1962), B5 vitamins (Gamborg et al 1968) and 30 g·L^−1 sucrose. […]
# In a second series of experiments, the lithium accumulation of regenerated St. John's wort shoots was determined. […]
# Samples were harvested from the cultures analysed for lithium with the same protocol as described above.
# [3] = tested on: livestock growth; conditions: animal feeds supplemented with 3000 ppm inorganic zinc; cited from earlier work
# [4] = tested on: Echinacea plantlets; assay: Zinc uptake and growth of Echinacea plantlets on zinc-supplemented liquid basal medium; assay type: in vivo, Echinacea purpurea
# Description: Germinating seedlings were cultured onto MS medium (Murashige & Skoog, 1962) with B5 vitamins (Gamborg et al 1968), 30 g·L^−1 sucrose and 3 g·L^−1 gelrite in Magenta boxes and incubated in a controlled environment chamber for 30 days with a 16 hour photoperiod under cool white light at 40–60 μmol·m^−2·s^−1. Mature seedlings were subcultured into 125 mL flasks containing 25 mL of basal medium supplemented with zinc at 0, 50, 100, 150 or 200 mg·L^−1 and incubated in the same chamber for 30 days (liquid baslal medium, Table 1).
# In experiments designed to determine the zinc uptake in micropropagated Echinacea plantlets, petiole explants, 2 cm in length were excised from the 4 week old sterile Echinacea plants and subcultured onto induction medium comprising MS media supplemented with thidiazuron (TDZ) (0.5, 1, 5 and 10 μmol·L^−1) or BAP (1, 2.5, 5, 7.5, 10, 12.5 and 15 μmol·L^−1) alone or in combination with indoleacetic acid (IAA) at concentrations of 5 and 10 μmol·L^−1. […] Regeneration was quantified after 25 and 33 days for all petiole cultures and roots after 33 and 42 days of culture. […]
# Plants were harvested on day 45 after treatments were initiated. […] Fresh weight of individual plantlets was determined prior to air drying at 90° C. for 48 hours. […] The zinc content of the samples was determined using an AA55 Varian Atomic Absorption Spectrophotometer or by ICP Analysis. […]
# [5] = tested on: uptake of serotonin, dopamine, noradrenaline, GABA and L-glutamate; conditions: animal cell cultures; cited from earlier work
compound,measurement,setting,value
"c1ccc(CNc2ncnc3[nH]cnc23)cc1 [BAP, benzylaminopurine]",Number of regenerants/petiole,[1]; BAP 1 μmol·L^−1,5.4^ab
same,Number of regenerants/petiole,[1]; BAP 2.5 μmol·L^−1,8.1^a
same,Number of regenerants/petiole,[1]; BAP 5 μmol·L^−1,6.6^ab
same,Number of regenerants/petiole,[1]; BAP 7.5 μmol·L^−1,5.2^ab
same,Number of regenerants/petiole,[1]; BAP 10 μmol·L^−1,3.9^b
same,Number of regenerants/petiole,[1]; BAP 12.5 μmol·L^−1,5.2^ab
same,Number of regenerants/petiole,[1]; BAP 15 μmol·L^−1,5.5^ab
same,de novo shoot formation,"[1]; BAP as the sole growth regulating compound, all concentrations",induced de nova shoot formation at all concentrations
same,callus formation and elongation of the petioles,[1]; culture medium supplemented with BAP,induce callus formation and elongation of the petioles
[Li] [lithium],appearance of plantlets,[2]; all treatment levels (0–200 mg·L^−1 lithium),appeared healthy
same,growth rate,"[2]; lithium supplementation of the culture medium, all treatment levels",unaffected
[Zn] [zinc],muscle and protein accretion and rate of growth,[3],more rapid muscle and protein accretion and an overall acceleration in the rate of growth
same,appearance of plants,"[4]; 50, 100 and 150 mg·L^−1 zinc treatment groups",appeared normal and healthy
same,plantlet growth,[4]; higher concentrations of zinc in the medium (above 150 mg·L^−1),some inhibition of growth was observed
hyperforin,"uptake of serotonin, dopamine, noradrenaline, GABA and L-glutamate",[5],inhibition of uptake
